Data: publication PMC5945563 (Chemistry Central Journal, 2018)
Counter-ions that a name gives are not always drawn.

Experiments:
human 5-HT6 receptor = human 5-HT6 receptor (Homo sapiens, UniProt P50406); assay: Radioligand binding assay, [3H]-LSD, HEK293 cell membranes
human 5-HT7b receptor = human 5-HT7b receptor (Homo sapiens, UniProt P34969); assay: Radioligand binding assay, [3H]-5-CT, HEK293 cell membranes
human 5-HT1A receptor = target: T1, human 5-HT1A receptor (Homo sapiens, UniProt P08908); assay: Radioligand binding assay, [3H]-8-OH-DPAT, HEK293 cell membranes
T1 sequence (P08908 1-422): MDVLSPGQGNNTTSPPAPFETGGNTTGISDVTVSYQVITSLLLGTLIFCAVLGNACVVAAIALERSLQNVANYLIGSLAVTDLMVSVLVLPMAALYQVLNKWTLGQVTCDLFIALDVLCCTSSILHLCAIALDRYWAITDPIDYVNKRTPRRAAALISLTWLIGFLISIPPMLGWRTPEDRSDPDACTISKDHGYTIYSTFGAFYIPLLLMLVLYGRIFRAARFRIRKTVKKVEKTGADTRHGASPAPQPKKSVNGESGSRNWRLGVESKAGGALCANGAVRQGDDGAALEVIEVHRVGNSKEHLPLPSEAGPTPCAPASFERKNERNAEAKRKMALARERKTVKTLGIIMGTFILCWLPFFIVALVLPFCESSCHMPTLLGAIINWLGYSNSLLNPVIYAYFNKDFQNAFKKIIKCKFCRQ

human D2L receptor = human D2L receptor (Homo sapiens, UniProt P14416); assay: Radioligand binding assay, [3H]-raclopride, HEK293 cell membranes
human D2L receptor, sequence (P14416 whole entry): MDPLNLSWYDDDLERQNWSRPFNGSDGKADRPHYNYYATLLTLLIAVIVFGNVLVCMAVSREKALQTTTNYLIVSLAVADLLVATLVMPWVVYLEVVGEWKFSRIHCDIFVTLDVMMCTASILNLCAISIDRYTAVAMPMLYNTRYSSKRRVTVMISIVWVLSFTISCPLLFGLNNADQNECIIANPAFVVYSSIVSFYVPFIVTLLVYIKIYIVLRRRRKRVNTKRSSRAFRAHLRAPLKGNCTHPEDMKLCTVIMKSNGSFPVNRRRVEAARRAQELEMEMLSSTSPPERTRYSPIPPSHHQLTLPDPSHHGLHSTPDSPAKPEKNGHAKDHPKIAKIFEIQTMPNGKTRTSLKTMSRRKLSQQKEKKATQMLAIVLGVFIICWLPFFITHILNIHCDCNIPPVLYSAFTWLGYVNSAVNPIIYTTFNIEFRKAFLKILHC

human 5-HT7b receptor, sequence (P34969 1-432 limits assumed): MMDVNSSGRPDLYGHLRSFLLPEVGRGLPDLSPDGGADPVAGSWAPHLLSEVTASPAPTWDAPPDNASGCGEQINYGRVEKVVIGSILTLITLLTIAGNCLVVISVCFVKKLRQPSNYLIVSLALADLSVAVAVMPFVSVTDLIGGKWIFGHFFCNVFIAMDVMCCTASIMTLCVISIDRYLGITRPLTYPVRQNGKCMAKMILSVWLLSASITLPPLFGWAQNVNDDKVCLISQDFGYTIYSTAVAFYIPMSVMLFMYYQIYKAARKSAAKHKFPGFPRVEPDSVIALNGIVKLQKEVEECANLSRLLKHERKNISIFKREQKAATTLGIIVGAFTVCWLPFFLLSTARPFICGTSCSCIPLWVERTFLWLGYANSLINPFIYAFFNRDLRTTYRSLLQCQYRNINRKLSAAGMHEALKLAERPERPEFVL
human 5-HT6 receptor, sequence (P50406 whole entry): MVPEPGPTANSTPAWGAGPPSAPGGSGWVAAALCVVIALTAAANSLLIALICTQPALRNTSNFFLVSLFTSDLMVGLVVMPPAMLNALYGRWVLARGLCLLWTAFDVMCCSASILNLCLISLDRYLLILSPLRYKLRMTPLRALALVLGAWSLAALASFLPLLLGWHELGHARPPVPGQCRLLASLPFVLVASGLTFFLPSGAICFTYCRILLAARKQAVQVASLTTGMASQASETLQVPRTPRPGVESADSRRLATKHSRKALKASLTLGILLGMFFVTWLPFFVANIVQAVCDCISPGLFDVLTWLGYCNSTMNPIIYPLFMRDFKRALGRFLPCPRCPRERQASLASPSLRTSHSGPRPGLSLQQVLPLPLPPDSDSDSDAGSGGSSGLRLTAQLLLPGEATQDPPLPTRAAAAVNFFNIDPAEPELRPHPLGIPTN

melting point [°C] | Ki (human 5-HT6 receptor) [nM] | Ki (human 5-HT7b receptor) [nM] | Ki (human 5-HT1A receptor) [nM] | Ki (human D2L receptor) [nM] | SMILES
246 to 247 | 436 | 49 | 38 | 47 | Cl.O=S(=O)(NCCCCN1CCN(c2cccc(Cl)c2)CC1)c1cc2ccccc2cn1 [Compound 2, N-(4-(4-(3-chlorophenyl)piperazin-1-yl)butyl)isoquinoline-3-sulfonamide hydrochloride]
215 to 216 | 916 | 85 | 73 | 23 | Cc1cccc(N2CCN(CCCCNS(=O)(=O)c3cc4ccccc4cn3)CC2)c1C.Cl [Compound 4, N-(4-(4-(2,3-dimethylphenyl)piperazin-1-yl)butyl)isoquinoline-3-sulfonamide hydrochloride]
198 to 199 | – | – | – | – | O=S(=O)(NCCCCN1CCN(c2ccccc2)CC1)c1cc2ccccc2cn1 (as salt: hydrochloride) [Compound 1, N-(4-(4-phenyl)piperazin-1-yl)butyl)isoquinoline-3-sulfonamide hydrochloride]
